From patent US8496945B2, “Nanoparticle delivery systems for membrane-integrating peptides” (priority 2007, dated 2013) come the findings set out here.

Experiment [1] has as its system C-32 melanoma cells. In words: Cell proliferation inhibition (MTT) assay. Type of experiment: cell-based. Conditions: 3 hours treatment, then 72 hours. Here is the method:
The effect of αvβ3-targeted melittin-nanoparticles on C-32 cancer cell proliferation was determined by the 3-[4,5-dimethylthiazol-2-yl]2,5-diphenyltetrazolium bromide (MTT) assay. The assay measures the activity of a mitochondrial enzyme that converts MTT, a tetrazolium salt, into a formazan crystal that absorbs at 570 nm.
(§1) C-32 melanoma cells were seeded in 96-well plates at a seeding density of 5,000 cells/well. After overnight incubation at 37° C., the cells were treated with free melittin, αvβ3-targeted or nontargeted melittin nanoparticles at various concentrations. At the end of 3 hours of incubation at 37° C., the cells were washed three times with PBS and incubated at 37° C. for a period of 72 hours. Then the medium was aspirated, and the cells rinsed with phosphate buffered saline (PBS) and 20 μl MTT solution (Sigma-Aldrich, St. Louis, Mo., final concentration 5 mg/ml in PBS) was added to each well. Cells were further incubated at 37° C. for 30 min, solubilized in 200 μl DMSO to dissolve the precipitated formazan and the absorbance read on a microplate reader (Biorad, Model 550) at 570 nm. Background absorbencies were subtracted and untreated control cells were set at 100% viability.

The subject of experiment [2] is red cells. In words: Hemolysis assay. Type of experiment: cell-based, Human. Conditions: 5×10^7 red cells, 37° C., 3 hours; read-out: IC50 (concentration that causes 50% hemolysis). Here is the method: Human umbilical cord blood was obtained from healthy donors after informed consent. The red cells were separated by centrifugation at 200 g for 10 min and resuspended in normal saline. Various concentrations of melittin or melittin-carrying nanoparticles were added to a fixed number of red cells (5×10^7 cells) and incubated at 37° C. for 3 hours. The release of hemoglobin was quantified by measuring the absorbance at 540 nm of the supernatant in a Microplate Reader (Model 550, BioRad) after centrifugation. The absorbance of the supernatant obtained by incubating the red cells in water under identical conditions was set to 100%.

Experiment [3] concerns C-32 melanoma cells. In words: Cytochrome c release assay. In kind it is cell-based. The method, then: Cytochrome c is a water-soluble 15 kDa protein residing in the mitochondrial intermembrane space and is released early during apoptosis. To determine if melittin-loaded nanodroplets trigger release of cytochrome c, C-32 melanoma cells were treated with varying concentrations of melittin-nanoparticles for 1 hour at 37° C. following which the mitochondria were isolated by using the Mitochondrial Isolation Kit (Pierce Biotechnology, Rockford, Ill.). The cytochrome c present in the mitochondrial and cytosol fractions thus obtained was assayed by using the cytochrome c ELISA kit (Invitrogen, Carlsbad, Calif.).

In experiment [4] the test system is C-32 melanoma cells. In words: Lactate dehydrogenase release assay. Conditions: 1 hour at 37° C., 0.1% triton-X 100 = 100%. Type of experiment: cell-based. Here is the method:
Lactate dehydrogenase (LDH) is a stable enzyme that is rapidly released from the cells upon plasma membrane damage. The lactate dehydrogenase release assay kit was obtained from BioVision (Mountain View, Calif.) and the assay performed according to manufacturers instructions. Briefly, C-32 melanoma cells were either treated with free melittin or melittin-nanoparticles at various concentrations for 1 hour at 37° C. and the amount of lactate dehydrogenase released quantified. Cells treated with 0.1% triton-X 100 were taken as 100% release.

A short description of experiment [5]: Surface plasmon resonance kinetics of melittin insertion in lipid monolayers (Biacore L1 chip). Conditions: melittin 15 to 1,000 nM. In kind it is binding. The method, then: The kinetics of melittin insertion in lipid monolayers of perfluorocarbon nanoparticles was studied by surface plasmon resonance (SPR). SPR detects change in the reflective index of a surface. Biacore-X biosensor and carboxy methylated dextran chip L1 were obtained from Biacore, Inc (Piscataway, N.J.). All solutions were degassed and filtered through a 0.22 μm membrane as recommended. A uniform lipid monolayer on an L1 chip was created by injecting 35 μl PFOB nanoparticles (3 μl/min). Loosely deposited nanoparticles were removed by first increasing the flow rate to […] for 2 min followed by an injection of NaOH (50 μl, 10 mM) to ensure a stable baseline. Complete coverage was confirmed by injecting the negative control bovine serum albumin (25 μl, […] in PBS). Melittin in various concentrations was then injected at a flow rate of 30 μl/min (30 μl in PBS; 15 nM to 1000 nM) and the response recorded for 60 minutes. At the end of each experiment the chip was regenerated by two consecutive injections of 3-[(3-cholamidopropyl)dimethylammonio]-1-propanesulfonate (CHAPS) (50 μl, 100 μl/min). A series of sensorgrams was generated for the selected melittin concentrations. The data were analyzed globally by simultaneously fitting the peptide sensorgrams obtained at various concentrations using the BIAevaluation™ software (Biacore, Inc, Piscataway, N.J.). […]
For orientation: Surface plasmon resonance follows binding to a sensor surface in real time, without labels.

Experiment [6] concerns C-32 melanoma cells. Put plainly: Cholesterol depletion, Amplex Red Cholesterol Assay. In kind it is cell-based. Conditions: 15 min at 37° C. Here is the method: The role of cholesterol in modulating the melittin activity on the cell membrane was assessed by depleting cells of cholesterol before the cell proliferation assay and flow cytometry (as described above). C-32 Melanoma cells were treated with either 0.25 mM or 0.5 mM methyl beta cyclodextrin (Sigma, St. Louis, Mo.) for 15 min at 37° C. to deplete cholesterol. To quantify the amount of cholesterol depleted by methyl beta cyclodextrin, total lipids were extracted from melanoma cells by standard procedure. Briefly, 10^6 C-32 melanoma cells grown in 6-well tissue culture plates were scraped by a rubber policeman and the pellet obtained post-centrifugation was treated with 200 μl chloroform-methanol (2:1). After spinning top speed in a microcentrifuge, the organic phase was collected and vacuum dried. The dried lipids were then dissolved in 20 μl of 2-propanol containing 10% triton-X 100 as assay samples. The total cholesterol content in the cells was determined by using the Amplex® Red Cholesterol Assay kit (Sigma, St. Louis, Mo.). Cholesterol standard was used for calibration as per manufacturer's recommendations.

For experiment [7], the system named is cholesterol-depleted C-32 Melanoma cells. Put plainly: Effect of cholesterol depletion on cell death (MTT assay). Type of experiment: cell-based. Conditions: 0.25 mM and 0.5 mM, no melittin. Here is the method: as §1
The role of cholesterol in modulating the melittin activity on the cell membrane was assessed by depleting cells of cholesterol before the cell proliferation assay and flow cytometry (as described above). […] To quantify the amount of cholesterol depleted by methyl beta cyclodextrin, total lipids were extracted from melanoma cells by standard procedure. […] The total cholesterol content in the cells was determined by using the Amplex® Red Cholesterol Assay kit (Sigma, St. Louis, Mo.). […]
In general terms: Formazan colour is commonly taken as a measure of viable cells.

Several values for one entry are separate records, joined by “and”; a condition that tells them apart may be missing. Identical values can stand only once.

Turning to `CC[C@H](C)[C@H](NC(=O)CN)C(=O)NCC(=O)N[C@@H](C)C(=O)N[C@H](C(=O)N[C@@H](CC(C)C)C(=O)N[C@@H](CCCCN)C(=O)N[C@H](C(=O)N[C@@H](CC(C)C)C(=O)N[C@H](C(=O)N[C@H](C(=O)NCC(=O)N[C@@H](CC(C)C)C(=O)N1CCC[C@H]1C(=O)N[C@@H](C)C(=O)N[C@@H](CC(C)C)C(=O)N[C@H](C(=O)N[C@@H](CO)C(=O)N[C@@H](Cc1c[nH]c2ccccc12)C(=O)N[C@H](C(=O)N[C@@H](CCCCN)C(=O)N[C@@H](CCCNC(=N)N)C(=O)N[C@@H](CCCCN)C(=O)N[C@@H](CCCNC(=N)N)C(=O)N[C@@H](CCC(N)=O)C(=O)N[C@@H](CCC(N)=O)C(N)=O)[C@@H](C)CC)[C@@H](C)CC)[C@@H](C)O)[C@@H](C)O)C(C)C)C(C)C` [free melittin, melittin], the IC50 in experiment [1] is 930 ± 80 nM; in experiment [2] it was 510 ± 120 nM. The “release of cytochrome c from the mitochondria” value in experiment [3] (1 hour at 37° C., varying concentrations) is “dose-dependent release”. Moreover, the cytochrome c release in experiment [3] (at the higher concentrations) is reported as 55.48±6.1%. The LDH release in experiment [4] (1 μM) is 19.17 (±4.2) percent; in experiment [4] (5 μM), 68.14 (±7.1) percent and 68.14±4.3%. The “association rate constant (ka)” value in experiment [5] is on record as 4.5±0.35×10^6 (Ms)^−1.

methyl beta cyclodextrin: the depletion of cholesterol in experiment [6] (0.25 mM) stood at 7%; in experiment [6] (0.5 mM) it was 12%. Moreover, the cell proliferation result in experiment [7] is on record as “no change in cell proliferation”.
